Assay results published in patent publication US12215092B2, “Pleiotropic pathway modifier compounds and method of treating diseases” (PPM BIOPHARMA LLC, priority 2023, dated 2025).
Entries after “also recorded” stand apart in the source; their conditions may differ.

Assays:
HDAC = assay: In situ HDAC activity fluorometric assay in cancer cells; type: cell-based, human; conditions: 24 h treatment, concentration dependent (FIG. 8)
Experimental: In Situ HDAC Activity Fluorometric Kit was purchased from Abcam and performed according to the manufacturer instructions. The cells (20,000) were seeded in a black walled 96-well plate and let to adhere overnight, then treated with DMSO or PPM compounds at indicated concentrations for 24 hrs. The media was then replaced with an HDAC substrate (acetylated peptide) dissolved in media and cells incubated for 3 hrs under cell culture conditions, followed by addition of the developer for 30 min to stop the reaction. The fluorescence was measured at Ex/Em=368/442 nm.

Aiolos = Aiolos (Homo sapiens, UniProt Q9UKT9); assay: Automatic Western blot (Simple Western), targeted protein degradation: Aiolos; type: cell-based; conditions: 0.001-10 μM, 24 hours
Chain of Aiolos (Q9UKT9 whole entry): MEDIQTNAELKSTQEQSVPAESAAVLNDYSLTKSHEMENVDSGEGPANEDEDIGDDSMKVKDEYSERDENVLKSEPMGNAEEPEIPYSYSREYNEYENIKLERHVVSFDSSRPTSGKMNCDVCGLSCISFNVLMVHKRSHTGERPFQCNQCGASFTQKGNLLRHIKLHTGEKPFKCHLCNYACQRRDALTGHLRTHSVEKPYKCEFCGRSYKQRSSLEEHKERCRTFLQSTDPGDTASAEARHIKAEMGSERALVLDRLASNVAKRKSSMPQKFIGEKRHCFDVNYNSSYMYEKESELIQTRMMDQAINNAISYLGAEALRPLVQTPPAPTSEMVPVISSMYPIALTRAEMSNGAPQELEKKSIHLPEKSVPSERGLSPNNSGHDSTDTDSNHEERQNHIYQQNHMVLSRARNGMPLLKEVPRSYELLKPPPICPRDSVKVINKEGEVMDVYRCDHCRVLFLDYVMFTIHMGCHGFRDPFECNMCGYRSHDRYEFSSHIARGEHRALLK
Experimental: (§1) Targeted protein degradation in test samples were determined using the automated capillary-based nanoproteomic immunoassay Simple Western System (Protein Simple). Cultured cells were washed with cold PBS once and lysed in cold RIPA buffer supplemented with protease and phosphatase inhibitors. The solutions were then incubated at 4° C. for 30 minutes with gentle agitation to fully lyse cells. Each test sample was diluted at 0.4 mg/ml and mixed with 5× reducing buffer with fluorescent molecular weight (MW) standards. Afterwards the samples were heated to 95° C. for 5 minutes, and 5 μL samples were loaded into each capillary tube. Proteins were passed and separated through stacking and separation matrices for 30 minutes at 250 V. Proteins were then immobilized to capillary walls using optimal photoactivated capture chemistry. Following proteins immobilization, capillaries were flushed with a wash buffer and incubated with a blocking reagent for 6 min. Each target protein was probed with a specific primary antibody (diluted in blocking buffer and incubated for 38 min) and a horseradish peroxidase (HRP)-conjugated secondary antibody (ready to use solutions, incubated for 23 min). […] The resulting chemiluminescent signal was captured by a CCD camera, and signal intensities were analyzed using Compass Software (Protein Simple). […]

[1] = system: human hematopoietic cancer cells; assay: Cancer cell proliferation assay (CellTiter-Glo), blood cancer cells; type: cell-based; conditions: 3 days, concentration-dependent (FIG. 2)
Experimental: (§2) The cell proliferation of cancer cells was assessed using the CellTiter-Glo Luminescent Cell Viability Assay (Promega), per the manufacturer's protocol.
(§3) Briefly, in 96-well flat-bottom white-walled multiwell cell culture plates the control wells containing 100 μL/well medium without cells were used to obtain a value for background luminescence. For treatment wells, cells were seeded at 5,000 in 50 μL/well of complete RPMI-1640 medium and then mixed with 50 μL/well of the vehicle control (0.1% DMSO) or test compounds at indicated concentrations. Following cell incubation for 3 days at 37° C. in a humidified 5% CO2 incubator, the plates were equilibrated at room temperature for approximately 30 minutes. 100 μL of CellTiter-Glo® Reagent were added into each well and then contents were mixed for 2 minutes on an orbital plate shaker to induce cell lysis. After the plates were incubated at room temperature for 10 minutes, luminescent signals of each well were recorded with a Tecan M200 Plate Reader (Tecan Trading AG, Switzerland).
(§4) The following human cancer cells originated from various tissues were used to test the antiproliferative activity of PPM compounds (Table 2). […] The EC50 values for each test compounds were calculated using GraphPad Prizm. […]

c-MYC = c-MYC (Homo sapiens, UniProt P01106); assay: Automatic Western blot (Simple Western), targeted protein degradation: c-MYC; type: cell-based; conditions: for c-MYC in H929 cells (targeted protein degradation / expression): H929 human myeloma cells
Chain of c-MYC (P01106 whole entry): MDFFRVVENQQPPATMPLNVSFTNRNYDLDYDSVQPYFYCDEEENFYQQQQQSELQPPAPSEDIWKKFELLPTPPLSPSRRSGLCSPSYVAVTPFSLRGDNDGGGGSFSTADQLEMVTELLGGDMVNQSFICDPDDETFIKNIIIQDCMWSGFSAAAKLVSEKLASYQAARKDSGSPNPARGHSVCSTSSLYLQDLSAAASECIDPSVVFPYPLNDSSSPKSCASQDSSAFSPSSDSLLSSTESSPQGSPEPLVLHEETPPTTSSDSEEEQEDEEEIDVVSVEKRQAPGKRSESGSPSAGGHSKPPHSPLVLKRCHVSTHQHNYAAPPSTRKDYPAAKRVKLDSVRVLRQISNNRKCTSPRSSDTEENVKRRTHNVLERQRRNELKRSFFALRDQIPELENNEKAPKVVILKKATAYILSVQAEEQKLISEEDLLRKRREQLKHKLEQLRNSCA
Experimental: (§5) Targeted protein degradation in test samples were determined using the automated capillary-based nanoproteomic immunoassay Simple Western System (Protein Simple). Cultured cells were washed with cold PBS once and lysed in cold RIPA buffer supplemented with protease and phosphatase inhibitors. The solutions were then incubated at 4° C. for 30 minutes with gentle agitation to fully lyse cells. Each test sample was diluted at 0.4 mg/ml and mixed with 5× reducing buffer with fluorescent molecular weight (MW) standards. Afterwards the samples were heated to 95° C. for 5 minutes, and 5 μL samples were loaded into each capillary tube. Proteins were passed and separated through stacking and separation matrices for 30 minutes at 250 V. Proteins were then immobilized to capillary walls using optimal photoactivated capture chemistry. Following proteins immobilization, capillaries were flushed with a wash buffer and incubated with a blocking reagent for 6 min. Each target protein was probed with a specific primary antibody (diluted in blocking buffer and incubated for 38 min) and a horseradish peroxidase (HRP)-conjugated secondary antibody (ready to use solutions, incubated for 23 min). A mixture of luminol and peroxide was added following manufacturer's protocol. The resulting chemiluminescent signal was captured by a CCD camera, and signal intensities were analyzed using Compass Software (Protein Simple).
(§6) 1H929 or Jurkat cells were treated with DMSO, the positive control pomalidomide (an FDA-approved immunomodulatory agent) or the selected test compound (compound 4) at indicated concentrations (0.001-10 μM) for 24 hours. […] Ikaros and other proteins (Table 1),

SEB induced PBMC = assay: Luminex-based multiplex cytokine assay, SEB induced PBMC; type: cell-based, human; conditions: concentration-dependent (FIG. 7)
Poly (I:C) induced PBMC = assay: Luminex-based multiplex cytokine assay, Poly (I:C) induced PBMC; type: cell-based, human; conditions: concentration-dependent (FIG. 5)
Eos = Eos (Homo sapiens, UniProt Q9H2S9); assay: Automatic Western blot (Simple Western), targeted protein degradation: Eos; type: cell-based; conditions: 0.001-10 μM, 24 hours
Chain of Eos (Q9H2S9 whole entry): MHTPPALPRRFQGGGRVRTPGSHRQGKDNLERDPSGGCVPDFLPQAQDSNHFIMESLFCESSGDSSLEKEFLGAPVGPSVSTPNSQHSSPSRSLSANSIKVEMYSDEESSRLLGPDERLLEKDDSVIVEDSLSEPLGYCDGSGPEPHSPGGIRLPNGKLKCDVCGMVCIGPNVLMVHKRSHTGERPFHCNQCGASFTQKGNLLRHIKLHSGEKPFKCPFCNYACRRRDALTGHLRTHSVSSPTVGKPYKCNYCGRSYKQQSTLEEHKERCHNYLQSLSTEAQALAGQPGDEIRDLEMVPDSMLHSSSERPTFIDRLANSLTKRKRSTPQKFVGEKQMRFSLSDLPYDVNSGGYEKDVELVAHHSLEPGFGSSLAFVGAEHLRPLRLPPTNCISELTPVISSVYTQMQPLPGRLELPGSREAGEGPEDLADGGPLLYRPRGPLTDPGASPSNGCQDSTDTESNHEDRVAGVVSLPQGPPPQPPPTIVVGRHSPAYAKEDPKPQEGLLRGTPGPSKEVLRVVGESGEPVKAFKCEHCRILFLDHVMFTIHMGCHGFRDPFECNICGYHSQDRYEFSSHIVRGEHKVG
Experimental: as §1

GAPDH = assay: Automatic Western blot (Simple Western): GAPDH (sample loading control); type: cell-based, human; conditions: 0.001-10 μM, 24 hours
Experimental: as §5, §6

HDAC2 = HDAC2 (Homo sapiens, UniProt Q92769); assay: Automatic Western blot (Simple Western), targeted protein degradation: HDAC2; type: cell-based; conditions: 0.001-10 μM, 24 hours
Chain of HDAC2 (Q92769 whole entry): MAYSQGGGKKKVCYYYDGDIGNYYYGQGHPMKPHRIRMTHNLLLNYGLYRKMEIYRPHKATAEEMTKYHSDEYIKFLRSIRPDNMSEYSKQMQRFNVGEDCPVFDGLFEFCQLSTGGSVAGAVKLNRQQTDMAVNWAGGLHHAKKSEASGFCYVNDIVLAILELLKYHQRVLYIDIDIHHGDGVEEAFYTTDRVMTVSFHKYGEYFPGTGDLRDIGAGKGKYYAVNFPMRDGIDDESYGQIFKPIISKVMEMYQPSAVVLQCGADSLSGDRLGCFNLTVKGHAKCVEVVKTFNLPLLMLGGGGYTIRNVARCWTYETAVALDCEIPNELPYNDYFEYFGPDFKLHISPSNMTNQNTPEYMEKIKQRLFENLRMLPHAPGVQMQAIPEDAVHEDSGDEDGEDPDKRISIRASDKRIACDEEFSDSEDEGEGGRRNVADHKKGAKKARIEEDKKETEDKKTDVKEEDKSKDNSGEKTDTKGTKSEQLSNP
Experimental: as §5, §6

CRBN = CRBN (Homo sapiens, UniProt Q96SW2); assay: Automatic Western blot (Simple Western), targeted protein degradation: CRBN; type: cell-based; conditions: 0.001-10 μM, 24 hours
Chain of CRBN (Q96SW2 whole entry): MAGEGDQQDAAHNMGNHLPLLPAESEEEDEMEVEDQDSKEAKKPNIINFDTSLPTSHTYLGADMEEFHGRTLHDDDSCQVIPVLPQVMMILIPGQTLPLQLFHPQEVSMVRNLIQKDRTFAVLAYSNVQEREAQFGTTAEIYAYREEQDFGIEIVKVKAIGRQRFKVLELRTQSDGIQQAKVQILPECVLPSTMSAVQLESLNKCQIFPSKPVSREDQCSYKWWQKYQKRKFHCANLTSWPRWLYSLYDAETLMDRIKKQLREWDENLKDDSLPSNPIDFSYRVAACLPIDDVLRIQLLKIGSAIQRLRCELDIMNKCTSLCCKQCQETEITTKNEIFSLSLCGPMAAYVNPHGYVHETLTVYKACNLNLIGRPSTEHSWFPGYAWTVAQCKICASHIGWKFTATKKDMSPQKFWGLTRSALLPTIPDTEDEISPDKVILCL
Experimental: as §1

LPS induced PBMC = assay: Luminex-based multiplex cytokine assay, LPS induced PBMC; type: cell-based, human; conditions: concentration-dependent (FIG. 6)
[2] = system: human solid tissue cancer cells; assay: Cancer cell proliferation assay (CellTiter-Glo), solid tumors; type: cell-based; conditions: 3 days, concentration-dependent (FIG. 1)
Experimental: as §2, §3, §4

Ikaros = Ikaros (Homo sapiens, UniProt Q13422); assay: Automatic Western blot (Simple Western), targeted protein degradation: Ikaros; type: cell-based; conditions: 0.001-10 μM, 24 hours
Chain of Ikaros (Q13422 whole entry): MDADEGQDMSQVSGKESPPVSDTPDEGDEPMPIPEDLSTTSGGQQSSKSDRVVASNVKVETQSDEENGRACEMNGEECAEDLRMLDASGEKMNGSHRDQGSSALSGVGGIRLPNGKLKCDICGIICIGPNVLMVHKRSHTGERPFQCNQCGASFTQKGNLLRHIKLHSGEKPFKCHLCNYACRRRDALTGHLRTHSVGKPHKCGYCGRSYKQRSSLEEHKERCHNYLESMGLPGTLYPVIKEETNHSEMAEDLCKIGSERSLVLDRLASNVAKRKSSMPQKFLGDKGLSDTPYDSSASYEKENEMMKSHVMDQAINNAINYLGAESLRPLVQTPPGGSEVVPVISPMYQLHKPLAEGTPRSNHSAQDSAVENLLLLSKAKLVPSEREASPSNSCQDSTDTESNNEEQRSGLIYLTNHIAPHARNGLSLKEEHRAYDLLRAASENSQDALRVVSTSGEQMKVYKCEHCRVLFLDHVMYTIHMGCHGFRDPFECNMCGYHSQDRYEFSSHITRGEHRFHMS
Experimental: as §5, §6

target protein = assay: Targeted protein degradation in H929 and Jurkat cells (overall statement); type: cell-based; conditions: H929 human multiple myeloma cells and Jurkat human leukemia cells, concentration dependent
Experimental: as §1

SMILES: O=C(CCCCc1ccc(C(=O)NCc2ccc3c(c2)CN(C2CCC(=O)NC2=O)C3=O)cc1)NO (stereo not drawn) [Compound 4, N-((2-(2,6-dioxopiperidin-3-yl)-1-oxoisoindolin-5-yl)methyl)-4-(5-(hydroxyamino)-5-oxopentyl)benzamide]
- intracellular HDAC activity in human cancer cells (HDAC): inhibit intracellular HDAC activity; also recorded: suppressed intracellular HDAC activity
- Aiolos in Jurkat cells (targeted protein degradation) (Aiolos): degraded
- proliferation of human hematopoietic cancer cells [1]: selectively suppressed the proliferation
- Compound-induced c-MYC degradation after pretreatment with the proteosome inhibitor bortezomib (c-MYC; H929 cells, bortezomib pretreatment): prevented
- c-MYC in H929 cells (targeted protein degradation / expression) (c-MYC; 0.001-10 μM, 24 hours): reduced c-MYC and HDAC expression
- c-MYC in H929 cells (targeted protein degradation / expression) (c-MYC; 0.001-10 μM, 24 hours, listed as compound 4): degraded
- levels of c-MYC (c-MYC; H929 or Jurkat cells, 0.001-10 μM, 24 hours): clearly reduced
- c-MYC in Jurkat cells (targeted protein degradation) (c-MYC; Jurkat cells, 0.001-10 μM, 24 hours): degraded
- cytokine production from SEB induced PBMC (SEB induced PBMC): enhanced cytokine production
- cytokine production from Poly (I:C) induced PBMC (Poly (I:C) induced PBMC): suppressed cytokine production
- Eos in Jurkat cells (targeted protein degradation) (Eos): degraded
- GAPDH in H929 cells (expression, loading control) (GAPDH): no effect
- GAPDH in H929 cells (expression, loading control) (GAPDH; listed as compound 4): No effect
- GAPDH in Jurkat cells (expression, loading control) (GAPDH; Jurkat cells): No effect
- HDAC2 in H929 cells (targeted protein degradation / expression) (HDAC2): reduced c-MYC and HDAC expression; also recorded: reduced HDAC2 expression
- HDAC2 in H929 cells (targeted protein degradation / expression) (HDAC2; listed as compound 4): degraded
- levels of HDAC2 (HDAC2; H929 or Jurkat cells): clearly reduced
- HDAC2 in Jurkat cells (targeted protein degradation) (HDAC2; Jurkat cells): degraded
- CRBN in H929 cells (targeted protein degradation) (CRBN; H929 cells): degraded
- CRBN in Jurkat cells (targeted protein degradation) (CRBN; Jurkat cells): degraded
- cytokine production from LPS induced PBMC (LPS induced PBMC): suppressed cytokine production
- proliferation of human solid tissue cancer cells [2]: selectively suppressed the proliferation
- Ikaros in H929 cells (targeted protein degradation) (Ikaros; H929 cells): degraded
- levels of Ikaros (Ikaros; H929 or Jurkat cells): clearly reduced
- Ikaros in Jurkat cells (targeted protein degradation / expression) (Ikaros): reduced Ikaros expression
- Ikaros in Jurkat cells (targeted protein degradation / expression) (Ikaros; listed as compound 4): degraded
- target protein degradation (target protein): caused target protein degradation
